Source: article PMC5805504 (Oncotarget, 2017)
Several values for one entry are separate records, joined by “and”; a condition that tells them apart may be missing. Equal entries are not always repeated. Where two headings read alike, the source gives them in different places.

Legend:
[1] = test system: pSMAD in 4T1-LP cells; experiment: TGFβ1-induced pSMAD inhibition in 4T1-LP cells (ELISA)
Method: (§2) Next, the samples were homogenized for 15 seconds using Bioruptor® UCD-200 by Diagenode at medium power.
(§3) Total and pSMAD2/3 levels were assessed independently on two separate ELISA plates. […] To the pSMAD ELISA plate, 100 μL per well of lysate (ranging from 0.04-0.1 mg total protein) was added to the appropriate wells. To the total SMAD ELISA plate, 10% of the total protein that was added to the pSMAD, was added to the appropriate wells (0.004-0.01 mg protein final). A standard curve was also added to both ELISA plates (p- and tSMAD plates) using recombinant HIS-pSMAD2 protein (Eli Lilly and Company). Plates were incubated overnight then washed four times with wash buffer. […] Following one hour of incubation, plates were washed and developed using 3, 3’, 5, 5’-tetramethylbenzidine substrate (TMB; Surmodics/BioFX #TMBW-0100-01) and absorbance (OD) was read at 450 nm on a plate reader.
(§4) Percent inhibition of normalized pSMAD2 levels was calculated by first determining the ratio of tSMAD to pSMAD values for the vehicle group. […]

[2] = test system: pSMAD in EMT6-LM2 tumors
Method: (§5) For in vivo measurement of tumor cell pSMAD activity, tumors were harvested from mice at the indicated time points post-treatment, snap frozen in liquid nitrogen, then pulverized in lysis buffer [EDTA 5 mM, EGTA 5 mM, sodium pyrophosphate 30 mM, sodium chloride 6.7 mM, sodium fluoride 50 mM, and 1% triton in water, pH 7.4 with protease and phosphatase inhibitors (Sigma, p8340, p5726, p0044) and sodium orthovanadate 2.5 mM]. Protein concentration was estimated with DC protein assay kit (BioRad).
(§6) Percent inhibition of normalized pSMAD2 levels was calculated by first determining the ratio of tSMAD to pSMAD values for the vehicle group. […] Percent inhibition for compound treated groups was determined relative to the minimum pSMAD inhibition of the vehicle group using the formula: [(100- (normalized pSMAD in the experimental treatment group/normalized pSMAD in the vehicle treated group)]. IC50 of pSMAD inhibition was calculated for the data using non-linear regression to fit the standard four parameter logistic model using GraphPad Prism 6.
(§7) Female athymic nu/nu mice or immune competent syngenic BALB/c mice (Charles River or Taconic Farms, respectively, 22 to 28 grams) were maintained in microisolator cages, received food and water ad libitum, and were quarantined for 1 week before experimental manipulation. Sub-confluent Calu6 human non-small cell lung cancer (NSCLC) cells were injected subcutaneously in the flank of nude mice (1x 10^7cells/per animal) in 0.2 mL of culture medium mixed with Matrigel (BD Biosciences, 1:1 v/v). EMT6-LM2 murine triple negative breast cancer tumor cells (5 × 10^5 cells/per animal in the absence of matrigel) were implanted on the flank of BALB/c mice. EMT6-LM2 cells were generated from parental EMT6 cells which were passaged twice from spontaneous lung metastases (LM) following subcutaneous growth. When the tumor volume reached ~250 mm^3, mice were randomized and separated into treatment groups.
(§8) Tumors and plasma were collected 2 hours post dosage for analysis of pSMAD and compound levels.
(§9) Tumors and plasma were collected at the indicated time points (0.5, 1, 1.5, 2, 4, 8, and 16 hours) for analysis of pSMAD and compound levels.
(§10) Percent target inhibition was calculated as described above then was modeled as a function of either dose or plasma concentration.

[3] = in vivo; conditions: female, BALB/c, mouse, plasma, po, 25 mg/kg
Method: as §5, §6, §7, §8, §9, §10

[4] = test system: 4T1 syngenic murine breast cancer model; experiment: 4T1 in vivo syngenic breast cancer model; design: species or system BALB/c mice
Method: Female BALB/c mice from Taconic Farms weighing 20 to 24 grams were acclimated for 1 week prior to study initiation, had ad libitum access to food and were shaved in the implant area prior to the orthotopic injection of 1 × 10^5 4T1 cells into the mammary fat pad in a volume of 20 μL media. Ten animals per group were utilized for tumor measurement and survival endpoints. […] Tumor volumes were determined by electronic caliper every 2 to 3 days. Statistical analysis was performed by repeated measures analysis and Kaplan-Meier analysis.

[5] = test system: pSMAD in Mv1Lu cells; experiment: Endogenous pSMAD inhibition in TGFβ1 stimulated Mv1Lu cells; assay type: cell-based, mink; conditions: data not shown
[6] = test system: TGFβ-responsive p3TP-Lux reporter in Mv1Lu cells; experiment: Mink lung epithelial cell p3TP-Lux reporter assay; assay type: cell-based; conditions: TGFβ1-mediated luciferase production, read-out: IC50 (SE), Mv1Lu p3TP-Lux
Method: The TGFβ-responsive p3TP-Lux reporter construct was stably expressed in Mv1Lu mink lung epithelial cells. […] Media was replaced with 0.5% FBS/DMEM and incubated at 37C/5% CO2 for 2 hours. […] The following day, cells were washed with PBS and lysed with lysis buffer by incubating for 20 to 30 minutes at room temperature. Counts were taken on the MicroBeta JET by injecting 50 μL Luciferase Assay Reagent II (PROMEGA), delay for 1 second and count for 5 seconds. Curve fitting utilized a 4-parameter logistic model and absolute IC50 values were reported.

[7] = design: method as in earlier work; conditions: patients with pancreas cancer; cited from earlier work
[8] = molecular target: T1, Alk1/ACVRL1 (Homo sapiens, UniProt P37023); experiment: KINOMEscan kinase competition binding assay (DiscoverX); conditions: absence of ATP, three-point titration
T1 construct: purchased DiscoverX
Source text: (§1) Data are presented as Geomean ± SD.

[9] = molecular target: T2, BMPR2 (Homo sapiens, UniProt Q13873); experiment: as above; conditions: absence of ATP, three-point titration
T2 construct: purchased DiscoverX
Source text: as §1

[10] = molecular target: T3, Alk4/ACVR1B (Homo sapiens, UniProt P36896); experiment: as above; conditions: absence of ATP, three-point titration
T3 construct: purchased DiscoverX
Source text: as §1

[11] = molecular target: T4, Abl1 (Homo sapiens, UniProt P00519); experiment: as above; conditions: absence of ATP, three-point titration
T4 construct: purchased DiscoverX
Source text: as §1

[12] = molecular target: T5, Braf (Homo sapiens, UniProt P15056); experiment: as above; conditions: absence of ATP, three-point titration
T5 construct: purchased DiscoverX
Source text: as §1

[13] = molecular target: T6, CSNK1E1 (Homo sapiens, UniProt P49674); experiment: as above; conditions: absence of ATP, three-point titration
T6 construct: purchased DiscoverX
Source text: as §1

[14] = molecular target: T7, ACVR2A (Homo sapiens, UniProt P27037); experiment: as above; conditions: absence of ATP, three-point titration
T7 construct: purchased DiscoverX
Source text: as §1

[15] = molecular target: T8, Alk6/BMPR1 (Homo sapiens, UniProt O00238); experiment: as above; conditions: absence of ATP, three-point titration
T8 construct: purchased DiscoverX
Source text: as §1

[16] = molecular target: T9, Alk2/ACVR1 (Homo sapiens, UniProt Q04771); experiment: as above; conditions: absence of ATP, three-point titration
T9 construct: purchased DiscoverX
Source text: as §1

[17] = molecular target: T10, TNIK (Homo sapiens, UniProt Q9UKE5); experiment: as above; conditions: absence of ATP, three-point titration
T10 construct: purchased DiscoverX
Source text: as §1

[18] = molecular target: T11, RIPK2 (Homo sapiens, UniProt O43353); experiment: as above; conditions: absence of ATP, three-point titration
T11 construct: purchased DiscoverX
Source text: as §1

[19] = molecular target: T12, GAK (Homo sapiens, UniProt O14976); experiment: as above; conditions: absence of ATP, three-point titration
T12 construct: purchased DiscoverX
Source text: as §1

[20] = molecular target: T13, NLK (Homo sapiens, UniProt Q9UBE8); experiment: as above; conditions: absence of ATP, three-point titration
T13 construct: purchased DiscoverX
Source text: as §1

[21] = molecular target: T14, MINK (Homo sapiens, UniProt Q8N4C8); experiment: as above; conditions: absence of ATP, three-point titration
T14 construct: purchased DiscoverX
Source text: as §1

[22] = molecular target: RSK4 (Homo sapiens, UniProt Q9UK32); experiment: as above; conditions: absence of ATP, three-point titration
Source text: as §1

[23] = molecular target: T15, Alk3/BMPR1A (Homo sapiens, UniProt P36894); experiment: as above; conditions: absence of ATP, three-point titration
T15 construct: purchased DiscoverX
Source text: as §1

[24] = molecular target: T16, ZAK (Homo sapiens, UniProt Q9NYL2); experiment: as above; conditions: absence of ATP, three-point titration
T16 construct: purchased DiscoverX
Source text: as §1

[25] = molecular target: T17, TGFβR2 (Homo sapiens, UniProt P37173); experiment: as above; conditions: absence of ATP, three-point titration
T17 construct: purchased DiscoverX
Source text: as §1

[26] = molecular target: T18, ACVR2B (Homo sapiens, UniProt Q13705); experiment: as above; conditions: absence of ATP, three-point titration
T18 construct: purchased DiscoverX
Source text: as §1

[27] = test system: pSMAD in EMT6-LM2 cells; experiment: TGFβ1-induced pSMAD inhibition in EMT6-LM2 cells (ELISA)
Method: as §2, §3, §4

[28] = rats; cited from earlier work
[29] = clinical; cited from earlier work

T3 sequence (P36896 24-505): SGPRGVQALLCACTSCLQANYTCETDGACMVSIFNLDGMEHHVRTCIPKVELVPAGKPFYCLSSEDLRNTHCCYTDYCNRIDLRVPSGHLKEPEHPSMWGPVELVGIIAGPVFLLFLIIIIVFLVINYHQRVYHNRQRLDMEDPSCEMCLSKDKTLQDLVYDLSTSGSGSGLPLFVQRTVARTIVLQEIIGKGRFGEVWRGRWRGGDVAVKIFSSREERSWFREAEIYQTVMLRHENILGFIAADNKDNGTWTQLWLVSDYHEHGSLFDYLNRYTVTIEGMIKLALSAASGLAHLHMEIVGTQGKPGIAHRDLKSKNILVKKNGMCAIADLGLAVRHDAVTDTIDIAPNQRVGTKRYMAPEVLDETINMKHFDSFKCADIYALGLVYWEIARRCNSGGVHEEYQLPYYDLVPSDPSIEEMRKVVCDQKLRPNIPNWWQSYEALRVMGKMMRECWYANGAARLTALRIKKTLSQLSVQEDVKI
T8 sequence (O00238 14-502): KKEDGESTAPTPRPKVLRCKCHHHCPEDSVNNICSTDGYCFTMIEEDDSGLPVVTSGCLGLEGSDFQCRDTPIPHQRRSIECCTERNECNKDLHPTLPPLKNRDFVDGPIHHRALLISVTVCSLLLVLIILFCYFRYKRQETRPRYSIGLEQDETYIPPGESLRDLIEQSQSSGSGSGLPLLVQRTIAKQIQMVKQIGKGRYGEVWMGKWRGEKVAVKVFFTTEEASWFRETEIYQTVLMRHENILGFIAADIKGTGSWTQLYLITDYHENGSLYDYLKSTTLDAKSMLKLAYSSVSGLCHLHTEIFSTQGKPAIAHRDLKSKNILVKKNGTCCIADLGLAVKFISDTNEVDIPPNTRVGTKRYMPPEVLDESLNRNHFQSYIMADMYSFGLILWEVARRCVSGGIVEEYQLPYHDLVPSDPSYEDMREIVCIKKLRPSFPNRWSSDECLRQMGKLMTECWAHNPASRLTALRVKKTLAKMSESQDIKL
T18 sequence (Q13705 19-512): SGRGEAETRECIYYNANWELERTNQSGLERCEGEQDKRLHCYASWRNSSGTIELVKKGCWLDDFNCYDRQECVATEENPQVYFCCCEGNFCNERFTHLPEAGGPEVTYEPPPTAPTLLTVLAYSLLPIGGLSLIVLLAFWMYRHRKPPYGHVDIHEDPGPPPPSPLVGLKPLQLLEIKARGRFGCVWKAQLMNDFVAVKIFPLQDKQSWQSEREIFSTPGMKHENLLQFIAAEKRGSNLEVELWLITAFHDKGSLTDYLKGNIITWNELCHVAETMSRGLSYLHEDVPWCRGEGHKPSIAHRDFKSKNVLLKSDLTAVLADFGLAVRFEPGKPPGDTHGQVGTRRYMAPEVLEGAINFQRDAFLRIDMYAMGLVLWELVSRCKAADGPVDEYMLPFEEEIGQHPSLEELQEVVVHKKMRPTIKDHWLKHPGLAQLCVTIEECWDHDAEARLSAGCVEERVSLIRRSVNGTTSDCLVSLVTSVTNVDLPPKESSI
T17 sequence (P37173 23-567): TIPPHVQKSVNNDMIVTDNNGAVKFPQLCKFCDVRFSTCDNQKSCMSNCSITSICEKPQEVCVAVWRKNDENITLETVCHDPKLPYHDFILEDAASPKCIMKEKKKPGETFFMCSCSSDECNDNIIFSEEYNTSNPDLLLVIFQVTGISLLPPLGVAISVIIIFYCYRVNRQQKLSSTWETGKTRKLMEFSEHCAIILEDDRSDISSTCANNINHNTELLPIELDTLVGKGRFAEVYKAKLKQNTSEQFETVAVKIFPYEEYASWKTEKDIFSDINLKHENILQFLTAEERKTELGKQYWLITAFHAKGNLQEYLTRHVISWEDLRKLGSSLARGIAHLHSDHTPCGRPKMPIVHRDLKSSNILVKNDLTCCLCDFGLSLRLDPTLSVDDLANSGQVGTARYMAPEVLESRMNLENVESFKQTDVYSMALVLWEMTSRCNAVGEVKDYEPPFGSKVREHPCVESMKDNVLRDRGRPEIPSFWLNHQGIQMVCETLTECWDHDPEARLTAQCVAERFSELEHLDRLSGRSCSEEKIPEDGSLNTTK
T7 sequence (P27037 20-513): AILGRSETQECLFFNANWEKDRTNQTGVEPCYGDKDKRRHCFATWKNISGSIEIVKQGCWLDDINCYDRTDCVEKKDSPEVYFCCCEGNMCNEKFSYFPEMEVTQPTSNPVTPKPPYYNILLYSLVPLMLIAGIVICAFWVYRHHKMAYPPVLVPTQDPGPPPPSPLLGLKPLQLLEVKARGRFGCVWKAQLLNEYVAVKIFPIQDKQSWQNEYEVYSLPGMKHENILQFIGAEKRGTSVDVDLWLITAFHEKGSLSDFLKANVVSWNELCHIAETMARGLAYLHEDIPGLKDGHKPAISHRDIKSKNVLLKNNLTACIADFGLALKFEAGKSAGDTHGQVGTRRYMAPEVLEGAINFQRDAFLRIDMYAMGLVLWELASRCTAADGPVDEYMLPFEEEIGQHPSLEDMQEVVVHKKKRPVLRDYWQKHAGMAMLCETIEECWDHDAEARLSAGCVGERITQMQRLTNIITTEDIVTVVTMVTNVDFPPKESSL
T5 sequence (P15056 whole entry): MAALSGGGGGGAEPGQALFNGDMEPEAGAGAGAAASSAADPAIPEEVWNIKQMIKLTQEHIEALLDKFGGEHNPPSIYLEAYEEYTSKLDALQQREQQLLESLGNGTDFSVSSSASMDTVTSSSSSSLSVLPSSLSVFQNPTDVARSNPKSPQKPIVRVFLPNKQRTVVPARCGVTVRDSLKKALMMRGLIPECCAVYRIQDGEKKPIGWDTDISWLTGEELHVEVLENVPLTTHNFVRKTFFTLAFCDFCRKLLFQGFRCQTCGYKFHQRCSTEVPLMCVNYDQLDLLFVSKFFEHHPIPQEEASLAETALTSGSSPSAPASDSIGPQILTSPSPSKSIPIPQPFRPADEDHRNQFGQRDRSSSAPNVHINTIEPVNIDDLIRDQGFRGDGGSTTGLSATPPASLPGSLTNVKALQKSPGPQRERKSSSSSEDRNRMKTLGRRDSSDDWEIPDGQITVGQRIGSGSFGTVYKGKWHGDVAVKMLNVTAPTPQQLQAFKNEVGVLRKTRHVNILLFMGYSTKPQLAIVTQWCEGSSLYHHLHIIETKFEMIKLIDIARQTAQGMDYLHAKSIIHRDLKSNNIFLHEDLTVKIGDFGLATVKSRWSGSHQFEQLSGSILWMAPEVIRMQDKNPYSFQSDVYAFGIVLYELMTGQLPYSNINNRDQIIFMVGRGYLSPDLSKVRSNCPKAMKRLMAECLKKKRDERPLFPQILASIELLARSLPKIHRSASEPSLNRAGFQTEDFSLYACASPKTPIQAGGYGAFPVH
T1 sequence (P37023 22-503): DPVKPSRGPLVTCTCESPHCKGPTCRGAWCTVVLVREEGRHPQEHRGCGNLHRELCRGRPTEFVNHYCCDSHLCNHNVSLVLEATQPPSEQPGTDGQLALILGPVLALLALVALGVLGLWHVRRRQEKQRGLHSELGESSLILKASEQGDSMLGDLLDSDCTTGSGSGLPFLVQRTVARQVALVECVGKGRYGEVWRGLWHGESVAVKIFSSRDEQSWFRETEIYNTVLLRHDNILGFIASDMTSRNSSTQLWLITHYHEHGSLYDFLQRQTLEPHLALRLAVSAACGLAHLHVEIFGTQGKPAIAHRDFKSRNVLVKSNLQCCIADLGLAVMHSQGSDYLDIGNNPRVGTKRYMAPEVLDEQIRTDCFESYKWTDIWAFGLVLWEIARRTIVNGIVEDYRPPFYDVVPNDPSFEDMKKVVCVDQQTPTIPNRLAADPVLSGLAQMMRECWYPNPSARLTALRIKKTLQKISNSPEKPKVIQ
T2 sequence (Q13873 27-1038): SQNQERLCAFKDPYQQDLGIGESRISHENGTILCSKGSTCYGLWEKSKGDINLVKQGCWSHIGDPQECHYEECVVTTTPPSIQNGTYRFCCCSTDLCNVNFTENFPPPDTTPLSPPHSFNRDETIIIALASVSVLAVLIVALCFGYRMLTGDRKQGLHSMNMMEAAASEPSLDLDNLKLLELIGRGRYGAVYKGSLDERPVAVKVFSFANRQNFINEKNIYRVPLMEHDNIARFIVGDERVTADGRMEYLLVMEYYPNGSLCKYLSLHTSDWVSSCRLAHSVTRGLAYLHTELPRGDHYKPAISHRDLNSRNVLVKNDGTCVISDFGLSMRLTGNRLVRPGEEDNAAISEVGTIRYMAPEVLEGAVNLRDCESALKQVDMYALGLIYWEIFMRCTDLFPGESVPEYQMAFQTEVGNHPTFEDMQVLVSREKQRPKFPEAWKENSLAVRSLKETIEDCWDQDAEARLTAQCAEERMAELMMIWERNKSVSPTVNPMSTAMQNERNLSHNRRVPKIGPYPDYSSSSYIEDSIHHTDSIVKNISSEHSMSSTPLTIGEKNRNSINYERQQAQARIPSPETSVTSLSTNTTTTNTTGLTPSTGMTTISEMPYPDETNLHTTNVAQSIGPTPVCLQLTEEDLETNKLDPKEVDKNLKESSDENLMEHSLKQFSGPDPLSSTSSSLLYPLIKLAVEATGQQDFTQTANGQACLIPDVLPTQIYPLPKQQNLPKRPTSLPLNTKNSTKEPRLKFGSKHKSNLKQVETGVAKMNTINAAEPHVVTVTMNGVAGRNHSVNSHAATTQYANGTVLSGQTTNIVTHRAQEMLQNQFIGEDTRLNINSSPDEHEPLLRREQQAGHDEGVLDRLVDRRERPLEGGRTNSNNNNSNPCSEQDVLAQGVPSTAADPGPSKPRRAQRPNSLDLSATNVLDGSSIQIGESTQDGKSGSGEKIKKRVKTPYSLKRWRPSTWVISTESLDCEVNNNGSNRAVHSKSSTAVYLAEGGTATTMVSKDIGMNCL
Sequence of RSK4 (Q9UK32 73-330): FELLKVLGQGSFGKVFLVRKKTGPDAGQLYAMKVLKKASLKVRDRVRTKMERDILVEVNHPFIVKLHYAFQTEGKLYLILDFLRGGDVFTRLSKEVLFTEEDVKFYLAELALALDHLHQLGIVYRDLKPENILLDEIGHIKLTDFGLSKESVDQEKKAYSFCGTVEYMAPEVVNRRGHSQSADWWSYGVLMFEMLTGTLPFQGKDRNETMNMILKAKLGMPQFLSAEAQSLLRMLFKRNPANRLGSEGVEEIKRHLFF

For `Cc1cccc(-c2nn3c(c2-c2ccnc4ccc(C(N)=O)cc24)CCC3)n1.O` [galunisertib, 4-[2-(6-methylpyridin-2-yl)-5,6-dihydro-4H-pyrrolo[1,2-b]pyrazol-3-yl]quinoline-6-carboxamide monohydrate], the IC50 ([1]; Mus musculus, read-out: IC50, pSMAD activity, 4T1-LP, TGFβ1 10 ng/ml, ELISA) was 1760 nM, the IC50 ([1]; read-out: IC50, pSMAD activity, 4T1-LP, TGFβ1 10 ng/ml, ELISA) was 1770 nM and the “pSMAD inhibition at maximum plasma exposure” value ([2]; EMT6-LM2, at 30 minutes) was ~ 70%. The “TED50, total effective dose to inhibit 50% pSMAD” value ([2]; EMT6-LM2, single oral dose, tumors 2 hours post dosage) was 19.7 mg/kg, the maximum plasma exposure ([2]; EMT6-LM2 time course, single oral dose) was “up to 6 μM” and the Tmax [3] was 30 min. For the same compound, the tumor growth delay ([4]; 75 mg/kg twice daily oral gavage, 500 mm^3 crossing time, p < 0.01) was 13 ± 2.4 days, the survival advantage ([4]; 75 mg/kg twice daily, Kaplan-Meier, p = 0.01) was 4.5 days and the body weight ([4]; 75 mg/kg twice daily, data not shown) was “No body weight loss”. The IC50 [5] was 176 nM, the IC50 ([6]; Mv1Lu) was 251 nM and the IC50 [6] was 250 nM. For the same compound, the “clinical outcome versus gemcitabine, phase II” value [7] was “superiority over gemcitabine”, the IC50 [8] was over 20000 nM and the IC50 [9] was over 60000 nM. The IC50 [10] was 80 nM, the IC50 ([10]; listed as Galunisertib) was 77.7 nM and the IC50 [11] was 860 nM. For the same compound, the IC50 [12] was 500 nM, the IC50 [13] was 400 nM and the IC50 [14] was over 20000 nM. The IC50 [15] was 470 nM, the IC50 ([15]; listed as Galunisertib) was 471 nM and the IC50 [16] was over 20000 nM. The IC50 [17] was 510 nM, the IC50 [18] was 220 nM and the IC50 [19] was 310 nM. For the same compound, the IC50 [20] was 910 nM, the IC50 [21] was 190 nM and the IC50 [22] was 720 nM. For the same compound, the IC50 [23] was 16800 nM, the IC50 [24] was 860 nM and the IC50 [25] was 210 nM. The IC50 ([25]; listed as Galunisertib) was 208 nM, the IC50 [26] was 690 nM and 694 nM and the IC50 ([27]; Mus musculus, read-out: IC50, pSMAD activity, EMT6-LM2, TGFβ1 10 ng/ml, ELISA) was 894 nM. The IC50 ([27]; read-out: IC50, pSMAD activity, EMT6-LM2, TGFβ1 10 ng/ml, ELISA) was 890 nM, the “adverse effects at high doses” value [28] was “associated with adverse effects” and the “tolerability as oral cancer therapy” value [29] was “well-tolerated”.
